Reference: paper PMC10539439 (Pharmacological Reports, 2023)
Where “and” joins values, the source holds several entries; their conditions need not be identical. Equal entries are not always repeated. Where two headings read alike, the source gives them in different places.

Target: T1, TAAR1 (Homo sapiens, UniProt Q96RJ0)
T1 sequence (Q96RJ0 1-339): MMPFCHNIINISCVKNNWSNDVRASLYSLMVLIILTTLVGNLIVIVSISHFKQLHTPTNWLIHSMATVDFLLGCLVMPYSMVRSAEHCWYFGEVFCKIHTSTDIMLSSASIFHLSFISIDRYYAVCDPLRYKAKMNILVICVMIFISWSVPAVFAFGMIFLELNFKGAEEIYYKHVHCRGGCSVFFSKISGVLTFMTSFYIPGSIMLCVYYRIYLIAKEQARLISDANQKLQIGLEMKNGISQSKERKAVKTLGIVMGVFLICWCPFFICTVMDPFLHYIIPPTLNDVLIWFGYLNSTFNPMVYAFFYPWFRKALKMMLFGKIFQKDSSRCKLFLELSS
Assay: Intrinsic activity, Hit Hunter cAMP assay
Assay type: cell-based
Protocol: The intrinsic activity study at cells with overexpression of TAAR1 (Eurofins, cat. No. 95-0173C2) was carried out at Eurofins Discoveries (Fremont, USA) using the Hit Hunter cAMP method. This assay monitors the activation of a GPCR via Gi and Gs secondary messenger signaling in a homogenous, non-imaging assay format using a technology developed by DiscoverX called Enzyme Fragment Complementation (EFC) with β-galactosidase (β-Gal) as the functional reporter. The enzyme is split into two complementary portions: EA for Enzyme Acceptor and ED for Enzyme Donor. ED is fused to cAMP and in the assay competes with cAMP generated by cells for binding to a cAMP-specific antibody. Active β-Gal is formed by complementation of exogenous EA to any unbound EDcAMP.
cAMP Hunter cell lines were expanded from freezer stocks according to standard procedures. Cells were seeded in a total volume of 20 µL into white-walled, 384-well microplates and incubated at 37 ℃ for the appropriate time prior to testing. For agonist determination, cells were incubated with a sample to induce a response. Media was aspirated from cells and replaced with 15 µL 2:1 HBSS/10 mM Hepes:cAMP XS + Ab reagent. Intermediate dilution of sample stocks was performed to generate 4X samples in assay buffer. 5 µL of 4 × sample was added to cells and incubated at 37 ℃ or room temperature for 30 or 60 min. Vehicle concentration was 1%. […] Microplates were read following signal generation with a PerkinElmer Envision instrument for chemiluminescent signal detection.

[1] = cAMP, Agonist, Conc(M) 1.00E-07

`Clc1cccc(N2CCNCC2)c1` [mCPP, 1-(3-Chlorophenyl)piperazine] was tested, and the EC50 was 237 µM, the “Intrinsic activity at TAAR1 (in words)” value was “weak agonistic activity” and the “Average Value (raw signal)” value (cAMP, Agonist, Conc(M) 1e-6) was 1440.00. The “Value 1 / Value 2 (raw signal)” value (cAMP, Agonist, Conc(M) 1e-6) was 1520 and 1360, the “Average Value (raw signal)” value (cAMP, Agonist, Conc(M) 1e-5) was 1660.00 and the “Value 1 / Value 2 (raw signal)” value (cAMP, Agonist, Conc(M) 1e-5) was 1520 and 1800. The “Average Value (raw signal)” value (cAMP, Agonist, Conc(M) 0.0001) was 2760.00, the “Value 1 / Value 2 (raw signal)” value (cAMP, Agonist, Conc(M) 0.0001) was 2560 and 2960 and the Emax at 100 µM (cAMP, Agonist, Conc(M) 0.0001 (10^–4 M), read-out: % Efficacy (of the full agonist tyramine)) was 34%. The “Average Value (raw signal)” value [1] was 1260.00 and the “Value 1 / Value 2 (raw signal)” value [1] was 1440 and 1080.
With `NCCc1ccc(O)cc1` [p-Tyramine] the “Curve Bottom” value (cAMP, Agonist) was -5.337, the “Curve Top” value (cAMP, Agonist) was 100.3 and the Hill (cAMP, Agonist) was 1.0838. The “Raw Value” (cAMP, Agonist, Conc 0.0254026) was 800 and 1040, the “Raw Value” (cAMP, Agonist, Conc 0.0762079) was 1080 and 1160 and the “Percent Efficacy” value (cAMP, Agonist, Conc 0.228624) was 12.1951 and 16.0976. The “Raw Value” (cAMP, Agonist, Conc 0.228624) was 1640, the “Percent Efficacy” value (cAMP, Agonist, Conc 0.685871) was 41.0732 and 48.8781 and the “Raw Value” (cAMP, Agonist, Conc 0.685871) was 3120 and 3520. The “Percent Efficacy” value (cAMP, Agonist, Conc 2.05761) was 73.0732 and 71.5122, the “Raw Value” (cAMP, Agonist, Conc 2.05761) was 4760 and 4680 and the “Percent Efficacy” value (cAMP, Agonist, Conc 6.17284) was 84.7805 and 92.5854. For the same molecule, the “Raw Value” (cAMP, Agonist, Conc 6.17284) was 5360 and 5760, the “Percent Efficacy” value (cAMP, Agonist, Conc 18.5185) was 89.4634 and 99.6098 and the “Raw Value” (cAMP, Agonist, Conc 18.5185) was 5600 and 6120. For the same molecule, the “Percent Efficacy” value (cAMP, Agonist, Conc 55.5556) was 100.39 and 104.293, the “Raw Value” (cAMP, Agonist, Conc 55.5556) was 6160 and 6360 and the “Percent Efficacy” value (cAMP, Agonist, Conc 166.667) was 105.073 and 97.2683. For the same molecule, the “Raw Value” (cAMP, Agonist, Conc 166.667) was 6400 and 6000, the “Percent Efficacy” value (cAMP, Agonist, Conc 500) was 107.415 and 90.2439 and the “Raw Value” (cAMP, Agonist, Conc 500) was 6520 and 5640. It also gave an Emax (cAMP, Agonist, read-out: Max Response) of 101% and an EC50 (cAMP, Agonist, read-out: RC50 (Result Type EC50)) of 0.802 µM.
